Test results: US10716768B2, “Method for treating abnormal B-amyloid aggregation mediated diseases” (NATIONAL TAIWAN NORMAL UNIVERSITY, priority 2016, dated 2020)

How the values were obtained:
[1] = Solubility test in cell culture medium; type: physicochemical; details: plasma or biological fluid, vortex mixing, centrifugation five minutes at 13,000 g, read-out: solubility in cell culture medium (completely soluble up to)
Description: This experiment was to test the solubility of compound (I-1), compound (I-2), compound (I-3), compound (I-4), and compound (I-5) in cell culture medium. After vortex mixing and centrifugation for five minutes at 13,000 g, the compounds were completely soluble in the cell culture medium up to 100 μM.

[2] = MTT cytotoxicity test, un-induced cells; type: cell-based, human; details: human
Description: (§1) This experiment was to test the toxicity of compounds (I-1), (I-2), (I-3), (I-4), and (I-5) to un-induced Tet-On Aβ-GFP Ftp-In 293 and SH-SY5Y cells. Un-induced Tet-On Aβ-GFP Flp-In 293 and SH-SY5Y cells were treated with compounds (I-1), (I-2), (I-3), (I-4), and (I-5) in different concentrations from 0.1 to 100 μM for 24 hours, followed by conducting MTT assay to test the cytotoxicity of the compounds. The experiment also tested the cytotoxicity of licochalcone A (0.1-100 μM) and curcumin (1-10 μM) to the un-induced Tet-On Aβ-GFP Flp-In 293 and SH-SY5Y cells. In the experiment, the relative cellular survival rate of untreated cells was 100%, the half maximal inhibitory concentration (IC50) of each compound was calculated by using interpolation, and the sample number of each group was n=3.

[3] = system: Aβ aggregation in Tet-On Aβ-GFP Flp-In 293 cells; experiment: Inhibition of abnormal β-amyloid aggregation test (GFP fluorescence, high-content analysis); type: cell-based, human; details: for GFP fluorescence: untreated 100%
Description: GFP fluorescence was used to reflect Aβ aggregation status as Aβ aggregated to cause the fused GFP misfolded, and thus cause the reduction of fluorescence on Aβ-GFP expressing cells. Inhibition of Aβ aggregation may improve GFP misfolding and lead to increased fluorescence on Aβ-GFP expressing cells. […] Then doxycycline (Dox) (2 μg/mL) was added to the cells for 64 hours to induce the Aβ-GFP expression, and GFP fluorescence was assessed by a high-content analysis (HCA) system (ImageXpressMICRO, available from Molecular Devices). The experiment also tested the inhibition effect of Aβ aggregation by curcumin (1-10 μM) and licochalcone A (0.001-100 μM). In the experiment, the amount of fluorescence measured in the untreated group (untreated with compounds) was 100%, and the sample number of each group was n=3.

[4] = Cytotoxicity of induced cells, propidium iodide staining and flow cytometer; type: cell-based, human; details: human
[5] = system: un-induced Tet-On Aβ-GFP Flp-In 293 and SH-SY5Y cells; experiment: MTT cytotoxicity test, un-induced cells; type: cell-based, human; details: MTT, 24 hours; range over un-induced Flp-In 293 (FIG. 1A) and SH-SY5Y (FIG. 1B) cells
Description: as §1

[6] = system: Tet-On Aβ-GFP Flp-In 293 cells; experiment: Cytotoxicity of induced cells, propidium iodide staining and flow cytometer; type: cell-based, human; details: induced cells, PI staining, flow cytometer (FIG. 3C)
[7] = 0.001-1 μM, cell survival rate more than 80%
[8] = 0.001-10 μM, cell survival rate more than 80%

Row | SMILES | solubility [1] [µM] | IC50 at 24 h [2] [µM] | IC50 [4] [µM] | also measured
1 | COc1ccc(C(=O)/C=C/c2cc(Br)ccc2O)cc1 [Compound (I-1)] | ≥ 100 | 8 to 51 | 47.7 | GFP fluorescence ([3]; 0.001-0.1 μM, cell survival rate more than 80%): 103-111%
2 | COc1ccc(O)c(/C=C/C(=O)c2ccccc2)c1 [Compound (I-2)] | ≥ 100 | 10 to 51 | 57.5 | GFP fluorescence [3, 7]: 105-112%
3 | Cc1ccc(/C=C/C(=O)c2c(O)c3ccccc3oc2=O)cc1 [Compound (I-3)] | ≥ 100 | ≥ 55 | 80.6 | GFP fluorescence [3, 8]: 103-117%
4 | COc1cccc(/C=C/C(=O)c2ccc(O)cc2)c1O [Compound (I-4)] | ≥ 100 | 45 to 71 | 60.9 | GFP fluorescence ([3]; 0.01-1 μM, cell survival rate more than 80%): 102-105%
5 | O=C(c1ccccc1)c1cc2c(O)cccc2oc1=O [Compound (I-5)] | ≥ 100 | > 100 | 95.1 | GFP fluorescence [3, 8]: 107-125%
6 | COc1cc(/C=C/C(=O)CC(=O)/C=C/c2ccc(O)c(OC)c2)ccc1O [curcumin, reference compound] |  | > 10 |  | cell number ([3]; curcumin 2.5 μM and 5 μM): more than 80 % of untreated cells; GFP fluorescence ([3]; curcumin 2.5 μM and 5 μM): 107-120%
7 | C=CC(C)(C)c1cc(/C=C/C(=O)c2ccc(O)cc2)c(OC)cc1O [licochalcone A, reference compound] |  |  |  | IC50 [5]: 47 to 51 µM; GFP fluorescence [3, 7]: 105-115%; IC50 [6]: 62.3 µM
